# B1: Ch11D5-IgG2: chimeric anti-AXL antibody 11D5 with human IgG2 (antibody)
# heavy: EVQLQESGPGLVKPSQSLSLTCSVTGYSITSNYWGWIRKFPGNKMEWIGHITNSGNTTYNPSLKSRISISRDTSRNQFFLQLNSVTTEDTATYYCAKGAFDYWGQGVMVTVSSASTKGPSVFPLAPCSRSTSESTAALGCLVKDYFPEPVTVSWNSGALTSGVHTFPAVLQSSGLYSLSSVVTVPSSNFGTQTYTCNVDHKPSNTKVDKTVERKCCVECPPCPAPPVAGPSVFLFPPKPKDTLMISRTPEVTCVVVDVSHEDPEVQFNWYVDGVEVHNAKTKPREEQFNSTFRVVSVLTVVHQDWLNGKEYKCKVSNKGLPAPIEKTISKTKGQPREPQVYTLPPSREEMTKNQVSLTCLVKGFYPSDIAVEWESNGQPENNYKTTPPMLDSDGSFFLYSKLTVDKSRWQQGNVFSCSVMHEALHNHYTQKSLSLSPGK
# light: DIQMTQSPSSMSTSLGDRVTITCRASQDIGNYLSWFQQKVGKSPRRMIYGAIKLAVGVPSRFSGSRSGSDYSLTISSLESEDMAIYYCLQYIQFPLTFGSGTKLELKRTVAAPSVFIFPPSDEQLKSGTASVVCLLNNFYPREAKVQWKVDNALQSGNSQESVTEQDSKDSTYSLSSTLTLSKADYEKHKVYACEVTHQGLSSPVTKSFNRGEC
# B2: ch11B7-IgG2: chimeric anti-AXL antibody 11B7 with human IgG2 (antibody)
# heavy: EVQLQESGPGLVKPSQSLSLTCSVTGYSITSNYWGWIRKFPGDKMEWMGYITYSGSTSYNPSLKSRISITRDTSKNQFFLQLNSVTSEDTATYYCAITTFYYWGQGVMVTVSSASTKGPSVFPLAPCSRSTSESTAALGCLVKDYFPEPVTVSWNSGALTSGVHTFPAVLQSSGLYSLSSVVTVPSSNFGTQTYTCNVDHKPSNTKVDKTVERKCCVECPPCPAPPVAGPSVFLFPPKPKDTLMISRTPEVTCVVVDVSHEDPEVQFNWYVDGVEVHNAKTKPREEQFNSTFRVVSVLTVVHQDWLNGKEYKCKVSNKGLPAPIEKTISKTKGQPREPQVYTLPPSREEMTKNQVSLTCLVKGFYPSDIAVEWESNGQPENNYKTTPPMLDSDGSFFLYSKLTVDKSRWQQGNVFSCSVMHEALHNHYTQKSLSLSPGK
# light: DIQMTQAPSSLPASLGDRVTITCRASQDIGNYLRWFQQKPGKSPRLMISGATNLAAGVPSRFSGSRSGSDYSLTISSLESEDMADYYCLQSKESPWTFGGGTKLELKRTVAAPSVFIFPPSDEQLKSGTASVVCLLNNFYPREAKVQWKVDNALQSGNSQESVTEQDSKDSTYSLSSTLTLSKADYEKHKVYACEVTHQGLSSPVTKSFNRGEC
# Legend:
# Type in all cases: cell-based, human
# C-8161 melanoma cells = assay: Soft agar colony formation assay, combination with cisplatin; conditions: 0.25 to 1.5 μM cisplatin, 5 days, compared to untreated control cells
# Description: Soft agar assays were conducted in order to investigate the ability of anti-Axl antibodies of the invention to inhibit anchorage-independent cell growth either alone or in combination with chemotherapeutic agents. The soft agar colony formation assay is a standard in vitro assay to test for transformed cells, as only transformed cells are able to grow in soft agar.
# In brief, 750 C-8161 melanoma cells either remained untreated or were pre-incubated with the antagonistic rat anti-Axl antibody 11B7 at 15 μg/ml in IMDM medium (Gibco) for 30 min at 37° C. Subsequently, cells were combined with Difco noble agar solution resulting in 50 μl of top agar cell suspension at concentrations of Agar, FCS, and 11B7 of 0.35%, 0.2%, and 7.5 μg/ml, respectively. This cell suspension was plated on top of 50 μl of a 0.7% agarose bottom layer containing 20% FCS, and was finally covered with another 50 μl of a feeding layer solution that contains 0.2% FCS as well as cisplatin in according concentrations. In the whole of 150 μl per sample, the final concentrations of 11B7 and cisplatin were 2.5 μg/ml and 1.5 μM, 1.0 μM, 0.75 μM, 0.5 μM, or 0.25 μM, respectively. Colonies were allowed to form for 5 days and were then stained with 50 μl MTT (Sigma, 1 mg/ml in PBS) for 3 hours at 37° C. Using a Scanalyzer HTS camera system in conjunction with the HTS Bonit colony formation software (Lemnatec, Wuerselen), the effect of the antagonistic rat anti-Axl antibody 11B7 in the absence or presence of cisplatin were analyzed in triplicates.
# [1] = tested on: NCI/ADR-RES ovarian cancer cells; assay: TUNEL staining, combination with doxorubicin; conditions: 24 h
# Description: As rat anti-Axl antibodies of the invention turned out to interfere with Gas6-mediated anti-apoptosis of serum-starved NIH3T3-Axl cl.7 fibroblasts, the question arose, whether antagonistic anti-Axl antibodies would synergize with chemotherapeutic agents in inducing apoptosis, thereby contributing to overcome drug resistance. In this example, NCI/ADR-RES (originally named MCF-7/AdrR) cells—a ovarian cancer cell line (Liscovitch and Ravid, 2007, Cancer Letters, 245, 350-352) displaying a high level of resistance to several agents including doxorubicin (Fairchild et al., 1987, Cancer Research, 47, 5141-5148; Xu et al., 2002, The Journal of Pharmacology and Experimental Therapeutics, 302, 963-971)—were incubated with the antagonistic anti-Axl antibody 11B7 and/or doxorubicin, and apoptosis rates were determined by TUNEL staining. In brief, 3×10^4 NCI/ADR-RES cells in normal growth medium were seeded per well of an 8-chamber culture slide (BD Falcon, cat#354118) which were pre-incubated with the same medium for 1 h at 37° C. The next morning, normal growth medium was removed and cells were washed with and cultured in serum-reduced (0.5% FCS) medium. In the evening, isotypic control antibody 1D5 or the antagonistic anti-Axl antibody 11B7 were added at final concentrations of 10 μg/ml each. In the morning of day 3, doxorubicin at final concentrations of 100 μM, 150 μM, or 200 μM was added, and cells were incubated at 37° C. After 24 h, cells were rinsed once with PBS, fixed with 4% formaldehyde in PBS (pH 7.5) for 20 min at room temperature, air-dried for 5 min, and stored at −20° C. Using the commercially available Fluorescein-FragEL™ kit (Oncogene, cat#QIA39, presently being distributed through Merck-Calbiochem), TUNEL staining was performed according to the supplier's manual instructions (chapter ‘Fluorescein-FragEL™ of cell preparations fixed on slides’, page 10). Applying fluorescence microscopy, cells were analyzed and photos were taken.
# [2] = tested on: NCI-H292 lung cancer cells; assay: Wound healing/scratch assay; conditions: 10 μg/ml antibody, 24 h, compared to isotypic control antibody
# Description: To examine the migration and proliferation rates of different cells and culture conditions, in vitro wound healing/scratch assays are being employed for many years. These assays generally involve growing a confluent cell monolayer first. A small area is then disrupted and a group of cells are being destroyed or displaced by scratching a line through the layer with, for example, a pipette tip. The open gap is then inspected microscopically over time as the cells move in and fill the damaged area (“healing”). In brief, 1.5×10^6 NCI-H292 lung cancer cells were seeded per well of a 12 well dish and cultured in normal growth medium (RPMI, 10% FCS). After 8 h, cells were rinsed with PBS and starved in low serum medium (RPMI, 0.5% FCS) over night for 24 h. Using a sterile 200 μl pipette tip, three separate uniform wounds per well were scratched through the confluent NCI-H292 cell monolayers. […] Cells were permitted to migrate into the area of clearing for 24 h, washed once with PBS and fixed with ice cold Methanol (100%) at −20° C. After cells were stained with crystal violet (0.5% in 20% Methanol), rinsed with water and dried over night, photos of the wounds were taken.
molecule,measurement,setting,value
"N.N.[Cl][Pt][Cl] [cisplatin, reference compound]","soft agar colony growth, cisplatin alone",C-8161 melanoma cells,colony growth retardation in a dose-dependent manner
"COc1cccc2c1C(=O)c1c(O)c3c(c(O)c1C2=O)C[C@@](O)(C(=O)CO)C[C@@H]3O[C@H]1C[C@H](N)[C@H](O)[C@H](C)O1 [doxorubicin, reference compound]","apoptosis (TUNEL staining), doxorubicin with control antibody, 100 μM",[1]; 100 μM doxorubicin + 10 μg/ml control antibody,"No TUNEL staining, and hence no apoptosis"
same,"apoptosis (TUNEL staining), doxorubicin with control antibody, 150 μM",[1]; 150 μM doxorubicin + 10 μg/ml control antibody,only very week apoptosis
B1,re-population of the cleared area (wound closure),[2],reduced the re-population of the cleared area
B2,re-population of the cleared area (wound closure),[2],reduced the re-population of the cleared area
